{"source": "ChEMBL document CHEMBL1201862", "about": "“PubChem BioAssay data set” (2004)", "assay_in_all_cases": "DTP human tumour cell line panel, 48 h", "key": {"786-0": {"system": "786-0"}, "A498": {"system": "A498"}, "A549": {"system": "A549"}, "ACHN": {"system": "ACHN"}, "BT-549": {"system": "BT-549"}, "CAKI-1": {"system": "CAKI-1"}, "CCRF-CEM": {"system": "CCRF-CEM"}, "COLO 205": {"system": "COLO 205"}, "DU-145": {"system": "DU-145"}, "EKVX": {"system": "EKVX"}, "HCC 2998": {"system": "HCC 2998"}, "HCT-116": {"system": "HCT-116"}, "HCT-15": {"system": "HCT-15"}, "HL-60": {"system": "HL-60"}, "HOP-62": {"system": "HOP-62"}, "HOP-92": {"system": "HOP-92"}, "HT-29": {"system": "HT-29"}, "Hs-578T": {"system": "Hs-578T"}, "IGROV-1": {"system": "IGROV-1"}, "K562": {"system": "K562"}, "KM12": {"system": "KM12"}, "LOX IMVI": {"system": "LOX IMVI"}, "M14": {"system": "M14"}, "MCF7": {"system": "MCF7"}, "MDA-MB-231": {"system": "MDA-MB-231"}, "MDA-MB-435": {"system": "MDA-MB-435"}, "MDA-N": {"system": "MDA-N"}, "MOLT-4": {"system": "MOLT-4"}, "Malme-3M": {"system": "Malme-3M"}, "NCI-H226": {"system": "NCI-H226"}, "NCI-H23": {"system": "NCI-H23"}, "NCI-H460": {"system": "NCI-H460"}, "NCI-H522": {"system": "NCI-H522"}, "NCI/ADR-RES": {"system": "NCI/ADR-RES"}, "OVCAR-3": {"system": "OVCAR-3"}, "OVCAR-5": {"system": "OVCAR-5"}, "OVCAR-8": {"system": "OVCAR-8"}, "PC-3": {"system": "PC-3"}, "RPMI-8226": {"system": "RPMI-8226"}, "RXF 393": {"system": "RXF 393"}, "SF-268": {"system": "SF-268"}, "SF-295": {"system": "SF-295"}, "SF-539": {"system": "SF-539"}, "SK-MEL-28": {"system": "SK-MEL-28"}, "SK-MEL-2": {"system": "SK-MEL-2"}, "SK-MEL-5": {"system": "SK-MEL-5"}, "SK-OV-3": {"system": "SK-OV-3"}, "SNB-19": {"system": "SNB-19"}, "SNB-75": {"system": "SNB-75"}, "SR": {"system": "SR"}, "SW-620": {"system": "SW-620"}, "T47D": {"system": "T47D"}, "TK-10": {"system": "TK-10"}, "U-251": {"system": "U-251"}, "UACC-257": {"system": "UACC-257"}, "UACC-62": {"system": "UACC-62"}, "UO-31": {"system": "UO-31"}}, "note": "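Where inhibition never reached the appropriate level, the endpoint shown equals the highest concentration tested. Otherwise, values were interpolated linearly from a five-concentration, 48-hour dose response in 96-well plates. Here, GI50 denotes the concentration required for 50% inhibition of growth.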 Activity calls are given as the source filed them. No stated cut-off is given here; in the data, active = GI50 up to about 1.1 µM and inactive = higher.", "data": [{"smiles": "CCC(=O)NC(Nc1cccc(F)c1C)(C(F)(F)F)C(F)(F)F", "values": [{"measurement": "GI50", "setting": "786-0", "result": "> 100 µM (inactive)"}, {"measurement": "GI50", "setting": "A498", "result": "> 100 µM (inactive)"}, {"measurement": "GI50", "setting": "A549", "result": "> 100 µM (inactive)"}, {"measurement": "GI50", "setting": "ACHN", "result": "> 100 µM (inactive)"}, {"measurement": "GI50", "setting": "BT-549", "result": "> 100 µM (inactive)"}, {"measurement": "GI50", "setting": "CAKI-1", "result": "> 100 µM (inactive)"}, {"measurement": "GI50", "setting": "CCRF-CEM", "result": "> 100 µM (inactive)"}, {"measurement": "GI50", "setting": "COLO 205", "result": "> 100 µM (inactive)"}, {"measurement": "GI50", "setting": "DU-145", "result": "> 100 µM (inactive)"}, {"measurement": "GI50", "setting": "EKVX", "result": "> 100 µM (inactive)"}, {"measurement": "GI50", "setting": "HCC 2998", "result": "> 100 µM (inactive)"}, {"measurement": "GI50", "setting": "HCT-116", "result": "> 100 µM (inactive)"}, {"measurement": "GI50", "setting": "HCT-15", "result": "> 100", "unit": "µM"}, {"measurement": "GI50", "setting": "HL-60", "result": "> 100 µM (inactive)"}, {"measurement": "GI50", "setting": "HOP-62", "result": "> 100 µM (inactive)"}, {"measurement": "GI50", "setting": "HOP-92", "result": "> 100 µM (inactive)"}, {"measurement": "GI50", "setting": "HT-29", "result": "> 100 µM (inactive)"}, {"measurement": "GI50", "setting": "Hs-578T", "result": "54.5 µM (inactive)"}, {"measurement": "GI50", "setting": "IGROV-1", "result": "> 100 µM (inactive)"}, {"measurement": "GI50", "setting": "K562", "result": "> 100 µM (inactive)"}, {"measurement": "GI50", "setting": "KM12", "result": "> 100 µM (inactive)"}, {"measurement": "GI50", "setting": "LOX IMVI", "result": "> 100 µM (inactive)"}, {"measurement": "GI50", "setting": "M14", "result": "> 100 µM (inactive)"}, {"measurement": "GI50", "setting": "MCF7", "result": "> 100 µM (inactive)"}, {"measurement": "GI50", "setting": "MDA-MB-231", "result": "> 100 µM (inactive)"}, {"measurement": "GI50", "setting": "MDA-MB-435", "result": "> 100 µM (inactive)"}, {"measurement": "GI50", "setting": "MDA-N", "result": "> 100 µM (inactive)"}, {"measurement": "GI50", "setting": "MOLT-4", "result": "> 100 µM (inactive)"}, {"measurement": "GI50", "setting": "Malme-3M", "result": "> 100 µM (inactive)"}, {"measurement": "GI50", "setting": "NCI-H226", "result": "> 100 µM (inactive)"}, {"measurement": "GI50", "setting": "NCI-H23", "result": "> 100 µM (inactive)"}, {"measurement": "GI50", "setting": "NCI-H460", "result": "> 100 µM (inactive)"}, {"measurement": "GI50", "setting": "NCI-H522", "result": "> 100 µM (inactive)"}, {"measurement": "GI50", "setting": "NCI/ADR-RES", "result": "> 100 µM (inactive)"}, {"measurement": "GI50", "setting": "OVCAR-3", "result": "> 100 µM (inactive)"}, {"measurement": "GI50", "setting": "OVCAR-5", "result": "> 100 µM (inactive)"}, {"measurement": "GI50", "setting": "OVCAR-8", "result": "> 100 µM (inactive)"}, {"measurement": "GI50", "setting": "PC-3", "result": "> 100 µM (inactive)"}, {"measurement": "GI50", "setting": "RPMI-8226", "result": "> 100 µM (inactive)"}, {"measurement": "GI50", "setting": "RXF 393", "result": "3.88 µM (inactive)"}, {"measurement": "GI50", "setting": "SF-268", "result": "> 100 µM (inactive)"}, {"measurement": "GI50", "setting": "SF-295", "result": "> 100 µM (inactive)"}, {"measurement": "GI50", "setting": "SF-539", "result": "> 100 µM (inactive)"}, {"measurement": "GI50", "setting": "SK-MEL-28", "result": "> 100 µM (inactive)"}, {"measurement": "GI50", "setting": "SK-MEL-2", "result": "> 100 µM (inactive)"}, {"measurement": "GI50", "setting": "SK-MEL-5", "result": "> 100 µM (inactive)"}, {"measurement": "GI50", "setting": "SK-OV-3", "result": "> 100 µM (inactive)"}, {"measurement": "GI50", "setting": "SNB-19", "result": "> 100 µM (inactive)"}, {"measurement": "GI50", "setting": "SNB-75", "result": "> 100 µM (inactive)"}, {"measurement": "GI50", "setting": "SR", "result": "75.3 µM (inactive)"}, {"measurement": "GI50", "setting": "SW-620", "result": "> 100 µM (inactive)"}, {"measurement": "GI50", "setting": "T47D", "result": "> 100 µM (inactive)"}, {"measurement": "GI50", "setting": "TK-10", "result": "> 100 µM (inactive)"}, {"measurement": "GI50", "setting": "U-251", "result": "> 100 µM (inactive)"}, {"measurement": "GI50", "setting": "UACC-257", "result": "> 100 µM (inactive)"}, {"measurement": "GI50", "setting": "UACC-62", "result": "> 100 µM (inactive)"}, {"measurement": "GI50", "setting": "UO-31", "result": "94.6 µM (inactive)"}]}]}
